Assay results as given in ChEMBL document CHEMBL1201862, “PubChem BioAssay data set” (2004).
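A five-concentration, 48-hour dose response in 96-well plates underlies each endpoint, interpolated linearly between surrounding concentrations. At the GI50, growth is halved.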 Active and inactive are the calls of the source. Cut-off read from the data, not from the text of the source: active = GI50 up to about 1.1 µM and inactive = higher.

Columns and labels:
Test in all cases: NCI tumour cell line growth inhibition, 48 h
[1] = tested on: SF-268
[2] = tested on: EKVX
[3] = tested on: NCI-H23
[4] = tested on: SF-295
[5] = tested on: SK-MEL-28
[6] = tested on: NCI-H226
[7] = tested on: MDA-N
[8] = tested on: HCT-116
[9] = tested on: OVCAR-8
[10] = tested on: NCI-H460
[11] = tested on: SR
[12] = tested on: U-251
[13] = tested on: 786-0
[14] = tested on: KM12
[15] = tested on: A549
[16] = tested on: NCI-H522
[17] = tested on: PC-3
[18] = tested on: SF-539
[19] = tested on: M14
[20] = tested on: Hs-578T
[21] = tested on: OVCAR-5
[22] = tested on: LOX IMVI
[23] = tested on: BT-549
[24] = tested on: T47D
[25] = tested on: UACC-257
[26] = tested on: RXF 393
[27] = tested on: COLO 205
[28] = tested on: RPMI-8226
[29] = tested on: SK-MEL-5
[30] = tested on: TK-10
[31] = tested on: MDA-MB-231
[32] = tested on: OVCAR-3
[33] = tested on: CAKI-1
[34] = tested on: NCI/ADR-RES
[35] = tested on: Malme-3M
[36] = tested on: MCF7
[37] = tested on: SW-620
[38] = tested on: ACHN
[39] = tested on: HT-29
[40] = tested on: DU-145
[41] = tested on: HCC 2998
[42] = tested on: K562
[43] = tested on: OVCAR-4
[44] = tested on: SK-OV-3
[45] = tested on: SNB-19
[46] = tested on: HOP-62
[47] = tested on: MDA-MB-435
[48] = tested on: UO-31
[49] = tested on: IGROV-1
[50] = tested on: SN12C
[51] = tested on: UACC-62
[52] = tested on: SK-MEL-2
[53] = tested on: HCT-15
[54] = tested on: HOP-92
[55] = tested on: MOLT-4
[56] = tested on: HL-60
[57] = tested on: SNB-75
[58] = tested on: CCRF-CEM

How did the GI50 [1] turn out when `O=C(Oc1cncc(Cl)c1)c1cc2ccccc2sc1=O` was run?
The GI50 was 49.5 µM (inactive).

What about the GI50 [2] of the same compound?
The GI50 was > 100 µM (inactive).

And the GI50 [3]?
Its GI50 is 58.7 µM (inactive).

What about the GI50 [4] of the same compound?
Its GI50 is 96.2 µM (inactive).

And the GI50 [5]?
The GI50 was 46.5 µM (inactive).

And the GI50 [6]?
The GI50 was 22.4 µM (inactive).

What about the GI50 [7] of the same compound?
Its GI50 is 78.2 µM (inactive).

What about the GI50 [8] of the same compound?
Its GI50 is 78.3 µM (inactive).

What about the GI50 [9] of the same compound?
Its GI50 is > 100 µM (inactive).

And the GI50 [10]?
The GI50 was 82.8 µM (inactive).

And the GI50 [11]?
The GI50 was 19.6 µM (inactive).

What about the GI50 [12] of the same compound?
The GI50 was 49.8 µM (inactive).

And the GI50 [13]?
The GI50 was 63.5 µM (inactive).

What about the GI50 [14] of the same compound?
Its GI50 is 40.9 µM (inactive).

What about the GI50 [15] of the same compound?
The GI50 was > 100 µM (inactive).

And the GI50 [16]?
The GI50 was 19.5 µM (inactive).

And the GI50 [17]?
The GI50 was 33 µM (inactive).

And the GI50 [18]?
Its GI50 is 18.5 µM (inactive).

What about the GI50 [19] of the same compound?
Its GI50 is 33.3 µM (inactive).

What about the GI50 [20] of the same compound?
The GI50 was 38.9 µM (inactive).

What about the GI50 [21] of the same compound?
The GI50 was > 100 µM (inactive).

What about the GI50 [22] of the same compound?
Its GI50 is 37.3 µM (inactive).

And the GI50 [23]?
Its GI50 is 57.7 µM (inactive).

What about the GI50 [24] of the same compound?
Its GI50 is > 100 µM (inactive).

What about the GI50 [25] of the same compound?
The GI50 was > 100 µM (inactive).

And the GI50 [26]?
Its GI50 is 23 µM (inactive).

And the GI50 [27]?
Its GI50 is 49.9 µM (inactive).

What about the GI50 [28] of the same compound?
The GI50 was 21.1 µM (inactive).

What about the GI50 [29] of the same compound?
Its GI50 is 31.7 µM (inactive).

What about the GI50 [30] of the same compound?
The GI50 was 76.7 µM (inactive).

And the GI50 [31]?
Its GI50 is 61.5 µM (inactive).

And the GI50 [32]?
The GI50 was 60.5 µM (inactive).

And the GI50 [33]?
The GI50 was > 100 µM (inactive).

And the GI50 [34]?
Its GI50 is 78.3 µM (inactive).

And the GI50 [35]?
Its GI50 is 34.2 µM (inactive).

What about the GI50 [36] of the same compound?
Its GI50 is 39.4 µM (inactive).

What about the GI50 [37] of the same compound?
The GI50 was 35.2 µM (inactive).

And the GI50 [38]?
The GI50 was 86.1 µM (inactive).

What about the GI50 [39] of the same compound?
The GI50 was 86.1 µM (inactive).

And the GI50 [40]?
The GI50 was 89.1 µM (inactive).

And the GI50 [41]?
Its GI50 is 32.7 µM (inactive).

What about the GI50 [42] of the same compound?
The GI50 was 31.7 µM (inactive).

And the GI50 [43]?
Its GI50 is 73.6 µM (inactive).

And the GI50 [44]?
Its GI50 is > 100 µM (inactive).

And the GI50 [45]?
The GI50 was 92.5 µM (inactive).

What about the GI50 [46] of the same compound?
The GI50 was 54.3 µM (inactive).

And the GI50 [47]?
Its GI50 is 29.5 µM (inactive).

What about the GI50 [48] of the same compound?
Its GI50 is > 100 µM (inactive).

And the GI50 [49]?
The GI50 was 49.5 µM (inactive).

And the GI50 [50]?
Its GI50 is 60.3 µM (inactive).

What about the GI50 [51] of the same compound?
Its GI50 is 29 µM (inactive).

And the GI50 [52]?
Its GI50 is 24.7 µM (inactive).

What about the GI50 [53] of the same compound?
The GI50 was 38.5 µM.

What about the GI50 [54] of the same compound?
The GI50 was 71.4 µM (inactive).

And the GI50 [55]?
The GI50 was 23.7 µM (inactive).

And the GI50 [56]?
The GI50 was 47.6 µM (inactive).

And the GI50 [57]?
The GI50 was 27.8 µM (inactive).

How did the GI50 [1] turn out when `CN1CCc2c([nH]c3ccccc23)C1` was run?
The GI50 was > 100 µM (inactive).

What about the GI50 [2] of the same compound?
Its GI50 is > 100 µM (inactive).

What about the GI50 [3] of the same compound?
Its GI50 is > 100 µM (inactive).

And the GI50 [4]?
Its GI50 is > 100 µM (inactive).

What about the GI50 [5] of the same compound?
Its GI50 is > 100 µM (inactive).

And the GI50 [6]?
Its GI50 is > 100 µM (inactive).

And the GI50 [7]?
Its GI50 is > 100 µM (inactive).

What about the GI50 [8] of the same compound?
The GI50 was > 100 µM (inactive).

And the GI50 [9]?
The GI50 was > 100 µM (inactive).

What about the GI50 [10] of the same compound?
Its GI50 is > 100 µM (inactive).

What about the GI50 [11] of the same compound?
The GI50 was > 100 µM (inactive).

And the GI50 [12]?
The GI50 was > 100 µM (inactive).

What about the GI50 [13] of the same compound?
The GI50 was > 100 µM (inactive).

And the GI50 [14]?
Its GI50 is > 100 µM (inactive).

What about the GI50 [15] of the same compound?
The GI50 was > 100 µM (inactive).

And the GI50 [16]?
The GI50 was > 100 µM (inactive).

What about the GI50 [17] of the same compound?
Its GI50 is > 100 µM (inactive).

And the GI50 [19]?
The GI50 was > 100 µM (inactive).

And the GI50 [20]?
The GI50 was > 100 µM (inactive).

What about the GI50 [21] of the same compound?
Its GI50 is > 100 µM (inactive).

What about the GI50 [22] of the same compound?
The GI50 was > 100 µM (inactive).

And the GI50 [23]?
Its GI50 is > 100 µM (inactive).

What about the GI50 [24] of the same compound?
The GI50 was > 100 µM (inactive).

And the GI50 [58]?
The GI50 was > 100 µM (inactive).

What about the GI50 [25] of the same compound?
The GI50 was > 100 µM (inactive).

And the GI50 [26]?
The GI50 was > 100 µM (inactive).

What about the GI50 [27] of the same compound?
The GI50 was > 100 µM (inactive).

What about the GI50 [28] of the same compound?
The GI50 was > 100 µM (inactive).

What about the GI50 [29] of the same compound?
Its GI50 is > 100 µM (inactive).

What about the GI50 [30] of the same compound?
The GI50 was > 100 µM (inactive).

And the GI50 [31]?
The GI50 was > 100 µM (inactive).

And the GI50 [32]?
The GI50 was > 100 µM (inactive).

What about the GI50 [33] of the same compound?
The GI50 was > 100 µM (inactive).

And the GI50 [34]?
Its GI50 is > 100 µM (inactive).

What about the GI50 [35] of the same compound?
The GI50 was 29.4 µM (inactive).

What about the GI50 [36] of the same compound?
Its GI50 is > 100 µM (inactive).

What about the GI50 [37] of the same compound?
The GI50 was > 100 µM (inactive).

What about the GI50 [38] of the same compound?
The GI50 was > 100 µM (inactive).

And the GI50 [39]?
Its GI50 is > 100 µM (inactive).

What about the GI50 [40] of the same compound?
The GI50 was > 100 µM (inactive).

And the GI50 [41]?
The GI50 was > 100 µM (inactive).

And the GI50 [42]?
Its GI50 is > 100 µM (inactive).

What about the GI50 [43] of the same compound?
The GI50 was > 100 µM (inactive).

And the GI50 [44]?
Its GI50 is > 100 µM (inactive).

And the GI50 [45]?
Its GI50 is > 100 µM (inactive).

What about the GI50 [46] of the same compound?
The GI50 was > 100 µM (inactive).

What about the GI50 [47] of the same compound?
Its GI50 is > 100 µM (inactive).

What about the GI50 [48] of the same compound?
The GI50 was > 100 µM (inactive).

And the GI50 [49]?
Its GI50 is > 100 µM (inactive).

And the GI50 [50]?
The GI50 was > 100 µM (inactive).

What about the GI50 [51] of the same compound?
The GI50 was > 100 µM (inactive).

What about the GI50 [52] of the same compound?
The GI50 was > 100 µM (inactive).

And the GI50 [53]?
The GI50 was > 100 µM.

What about the GI50 [55] of the same compound?
Its GI50 is > 100 µM (inactive).

What about the GI50 [56] of the same compound?
Its GI50 is > 100 µM (inactive).

What about the GI50 [57] of the same compound?
The GI50 was 19.7 µM (inactive).
